Assay [1] has as its system D. abbreviatus male antenna. As to the kind of experiment: Gas chromatography-linked electroantennogram detection (GC-EAD). The note with it: for antennal response (EAD) to constituents of citrus leaf headspace: SPME collection of citrus leaf volatiles, HP-5 column. The arrangement: species or system Diaprepes abbreviatus. An excerpt:
Gas chromatography-linked electroantennogram detection (GC-EAD): The antenna of the insect was employed as a detector in tandem with a high resolution gas chromatography system (GC, Hewlett Packard, […]) as in Dickens (Dickens, J. C., Agr. Forest Entomol., 1: 47-54 (1999)) to locate biologically active constituents in volatile collections of plants and candidate chemicals. An adult weevil antenna was mounted between two glass capillaries. Silver wires were inserted into the ends of both glass capillaries. One glass capillary filled with 0.1 M NaCl served as recording electrode holding the tip of the flagellum. The other capillary filled with electrode gel (Spectra 360, Parker Laboratories, USA) served as ground electrode holding the proximal end of the pedicel. The antenna was bathed in a humidified air-stream (60% RH, 23±2° C.) delivered at 30 cm/s (Stimulus Controller CS-05, Syntech) via a stainless steel tube (5 mm internal diameter) whose outlet was approximately 0.5 cm from the preparation. The electrophysiological signal was amplified and conditioned prior to storage and analyses using a computer equipped with GC-EAD 2.3 software (Syntech). Samples were injected into the gas chromatograph with a septum-purged packed column injector and a flame ionization detector (FID) at 245° C. equipped with one of the following J&W Scientific capillary columns: stationary phase DB-[…], high polarity, film thickness 0.25 μm, length 30 m, i.d. 0.248 mm or HP-5, low polarity, film thickness 0.25 μm, length 30 m, i.d. 0.251 mm. After an initial temperature of 50° C., which was held for 2 min following injection, the temperature of the GC oven was increased at 15° C./min to 235° C., which was held for 8 min. The enantiomers of linalool present in the odor of citrus were separated for their identification using a β-cyclodextrin column (stationary phase HP-Chiral-20B, mid-polar polarity, film thickness 0.25 μm, length 30 m, i.d. 0.252 mm). Following the injection of the linalool enantiomers, the initial temperature of 50° C. was held for 2 min following injection and then increased at 3° C./min to 180° C. Carrier gas (He) flow was 50 cm/s. The effluent from the column was split using a Gerstel GraphPack-3D/2 splitter with a ratio of approximately 1 part to the FID and 4 parts to the electroantennogram detector (EAD). The latter was swept by the humidified air-stream to the electrophysiological preparation from a heated transfer line (Syntech) at 245° C. Volatiles that elicited responses on the antenna were identified by GC-MS (Dickens, J. C., et al., J. Exp. Biol., 4: 309-314 (2002)).

A further assay deals with D. abbreviatus antennae. Kind of assay: Electroantennography (EAG) recordings. The arrangement: species or system Diaprepes abbreviatus. The settings on record: for EAGs compared on the same antenna (enantiomer/racemate comparison): n=3, paired Wilcoxon test; for Mean EAG of the weevil antenna to the standard: diluted 1000-fold in hexane, mean±SE, n=30; for antenna sensory threshold: amount in stimulus cartridge; for EAG dose-response curve at the two higher stimulus loads: 10 μg and 100 μg. As to the method: Electroantennography (EAG) recordings: For EAGs, an adult weevil antenna was mounted between two electrodes as described above for GC-EAD recordings. EAGs were analyzed using EAG 2.3 software (Syntech).
The following chemicals were serially diluted (ca. 0.01-100 μg) in hexane and tested separately on the antenna: cis-3-hexen-1-ol, trans-2-hexen-1-ol, (±)-linalool, (R)-(−)-linalool, (R)-(+)-citronellal, (S)-(−)-citronellal, cis-geraniol (nerol), trans-geraniol, cis-citral (neral), trans-citral (geranial), and carvacrol. Citral isomers were tested together in a blend. In order to compare activity of (±)-linalool and (R)-(−)-linalool ([…] was not available) as well as (R)-(+)-citronellal and (S)-(−)-citronellal, the enantiomers were tested alternatively on the same antenna of female and male weevils. Solvents and synthetic chemicals used in this investigation were ≧97% pure and acquired from Aldrich, Fisher Scientific, Fluka, and Sigma. Nomenclature of chemicals in the text follows that employed by NIST (http://webbook.nist.gov/chemistry/). One microliter of each solution was deposited on a small filter paper strip (0.8×2 cm; Whatman) that was inserted into a Pasteur pipette (cartridge) after solvent evaporation. The tip of the pipette was introduced via a hole in the wall of the stainless steel tube at 3 cm from the preparation. An air current (0.5 s duration, 50 cm/s airspeed; Air Velocity Meter 441S, Kurtz Instruments, USA) swept the chemicals evaporating from the filter paper from the cartridge (Stimulus Controller CS-05, Syntech) to the air-stream in which the antenna was bathed. Interstimulus time intervals of 2-3 min allowed for recovery of the antennal receptors. To allow for changes in sensitivity of an antenna preparation over time, stimulation with a standard compound preceded and followed each stimulus tested. A puff of 1 μg of (R)-(−)-linalool served as standard for EAGs with cis-3-hexen-1-ol and trans-2-hexen-1-ol, and 1 μg of cis-3-hexen-1-ol for EAGs with other compounds. A solvent control consisted of 1 μl of hexane on filter paper. EAGs were standardized by calculating the percent response of the experimental odorant relative to the mean of two responses to the standard preceding and following its presentation.
(§1) Statistical analysis: EAGs between (±)-linalool and (R)-(−)-linalool as well as between (R)-(+)-citronellal and (S)-(−)-citronellal on the same antenna were compared using the paired Wilcoxon test (Sokal, R. R., and F. J. Rohlf, Biometry, 3rd ed. Freeman, New York (1995)). Relative and absolute proportions of volatiles released by undamaged and damaged citrus leaves were also compared using the paired Wilcoxon test. Insect choices between test and control T-track olfactometer extremes were assessed for significant differences by the hypothesis on binomial proportions based on the standard normal approximation (Brase, C. H., and C. P. Brase, Understanding statistics, 1983, DC Health and Co, Lexington, Mass.). Other behaviors were analyzed using the paired Wilcoxon test and Chi-square test. Statistical analysis was performed using R (version 2.4.0, Vienna, Austria; Ihaka, R., and R. […], J. Comput. Graph. Stat., 5: 299-314 (1996)).

In the next assay the test system is D. abbreviatus adults. Kind of assay: Open T-track dual choice olfactometer behavioral experiments. Further details: unit not given here. In kind it is in vivo, Diaprepes abbreviatus. The note with it: stereotyped behavior in T-track olfactometer.
Text: Behavioral experiments: An open T-track dual choice olfactometer described by Dickens (1999) was modified as follows. A container (diameter 11 cm, height 8 cm) with petrolatum on its border, to prevent the escape of insects that were placed in its interior, was placed at the bottom of the vertical “T”. As D. abbreviatus is reluctant to move for long periods (some times hours) after being manipulated, 20-30 insects of the same sex were placed in the container in order to increase chances of observing insects walking. When more than one insect started to climb the “T” tube, the experiment was discarded. Stereotyped behaviors performed by the weevil were recorded using a video camera (Digital Handycam DCR-TVR30).
The following compounds diluted in 25 μl of mineral oil placed on a 4.25 cm filter paper (No. 2, Whatman, England) in a odour-delivery bottle were tested separately in the olfactometer (doses indicated in parenthesis): (±)-linalool (25 μg), (R)-(+)-citronellal (25 μg), carvacrol (25 μg) and cis-3-hexen-1-ol (25 μg). The following blends were also tested: (±)-linalool (25 μg)+carvacrol (2.5 μg) and (±)-linalool (25 μg)+carvacrol (2.5 μg)+cis-3-hexen-1-ol (25 μg). An equal amount of the mineral oil solvent on filter paper was placed in the other side of the olfactometer. In order to observe the behaviour of insects to solvent alone, mineral oil was placed in both odour-delivery bottles. Responses of forty insects (20 females and 20 males) were recorded for each stimulus.
as §1

Setting [2] is: at the injected amounts 1 ng and 10 ng.

In the case of `C=CC(C)(O)CCC=C(C)C` (racemic) [(±)-linalool], in assay [1] (10 ng injected), the “antennal response (EAD) to injected synthetic compound” value is “persisted”. Also, the “EAGs compared on the same antenna (enantiomer/racemate comparison)” value in the assay with D. abbreviatus antennae (females) is “did not differ significantly”. Also, the “EAGs compared on the same antenna (enantiomer/racemate comparison)” value in the assay on D. abbreviatus antennae (males) was “did not differ significantly”. In addition, in the assay with D. abbreviatus adults (females), the hesitation amounted to 80, the reaching was 30 and the rectifying stood at 22.5. In the assay with D. abbreviatus adults (males), the hesitation was found to be 82.5, the reaching stood at 52.5 and the rectifying is 25.

Consider `CC(C)=CCCC(C)CC=O` (racemic) [(±)citronellal], for which the “antennal response (EAD) to injected synthetic compound” value is on record as “disappeared” in assay [1] (1 ng injected, the lowest dose) and “persisted” in assay [1] (10 ng injected).

As for `CC(C)=CCC[C@@H](C)CC=O` [(R)-(+)-citronellal], the “EAGs compared on the same antenna (enantiomer/racemate comparison)” value in the assay on D. abbreviatus antennae (females) is on record as “larger than for (S)-(−)-citronellal”. Further, the “EAGs compared on the same antenna (enantiomer/racemate comparison)” value with D. abbreviatus antennae (males) is reported as “larger than for (S)-(−)-citronellal”. In addition, in the assay with D. abbreviatus adults (females), the hesitation is on record as 95, the reaching came out at 62.5 and the rectifying worked out at 15. Besides, in the assay with D. abbreviatus adults (males), the hesitation is listed as 85, the reaching amounted to 52.5 and the rectifying is recorded as 5.

With `C=C[C@](C)(O)CCC=C(C)C` [(R)-(−)-linalool], the “Mean EAG of the weevil antenna to the standard” value in the assay on D. abbreviatus antennae came to 1.750±0.311 mV. In the assay on D. abbreviatus antennae (females), the “EAGs compared on the same antenna (enantiomer/racemate comparison)” value was “did not differ significantly” and the antenna sensory threshold entry is listed as “around 0.1 μg”. For the same compound, in the assay on D. abbreviatus antennae (males), the “EAGs compared on the same antenna (enantiomer/racemate comparison)” value is recorded as “did not differ significantly” and the antenna sensory threshold result is “around 0.1 μg”.

With `CC(C)=CCC[C@H](C)CC=O` [(S)-(−)-citronellal], in the assay on D. abbreviatus antennae (males), the antenna sensory threshold entry is “around 0.1 μg”.

Take `Cc1ccc(C(C)C)cc1O` [carvacrol]: the “antennal response (EAD) to injected synthetic compound” value in assay [1] (setting [2]) was “EAGs were recorded only for the two former chemicals”. For the same compound, the “increase in EAG response from 1 to 10 μg in the stimulus cartridge” value (from here on “increase in EAG response from 1 to 10 μg”) in the assay with D. abbreviatus antennae was “did not share such a pattern”. In the assay on D. abbreviatus antennae (females), the “EAG dose-response curve at the two higher stimulus loads” value is “reached saturation” and the antenna sensory threshold entry is on record as “around 0.1 μg”. In the assay with D. abbreviatus antennae (females, from 0.01 μg to 1 μg), the “increase in EAGs in response to serial dilutions” value is recorded as “more pronounced than for males”. Further, in the assay with D. abbreviatus antennae (males), the “EAG dose-response curve at the two higher stimulus loads” value was “continued to increase”. In the assay on D. abbreviatus adults (females), this compound came in with a hesitation of 90, a reaching of 45 and a rectifying of 32.5. For the same compound, in the assay with D. abbreviatus adults (males), the hesitation worked out at 95, the reaching was found to be 45 and the rectifying was 47.5.

Take `CC/C=C\CCO` [cis-3-hexen-1-ol]: the “antennal response (EAD) to injected synthetic compound” value in assay [1] (setting [2]) is “EAGs were recorded”. In addition, in the assay on D. abbreviatus antennae, the “Mean EAG of the weevil antenna to the standard” value is 1.605±0.200 mV. Besides, the antenna sensory threshold result in the assay on D. abbreviatus antennae (females) and with D. abbreviatus antennae (males) was “around 0.1 μg” in each case. Besides, the figures for the hesitation in the assay on D. abbreviatus adults (females) and in the assay on D. abbreviatus adults (males) were 75 and 85, respectively. Besides, the reaching with D. abbreviatus adults (females) is listed as 12.5; with D. abbreviatus adults (males) it was 30. The rectifying in the assay on D. abbreviatus adults (females) is 10; in the assay with D. abbreviatus adults (males), 12.5.

As to `CC(C)=CCC/C(C)=C\C=O` [cis-citral, cis-citral (neral)], the “antennal response (EAD) to injected synthetic compound” value in assay [1] (setting [2]) is reported as “no responses”.

Consider `CC(C)=CCCC(C)=CC=O` [citral (cis and trans), citral], for which the antenna sensory threshold entry in the assay with D. abbreviatus antennae (females) and with D. abbreviatus antennae (males) was “around 0.1 μg” throughout.

Take `CC(C)=CCCC(C)CC=O` (centres unmarked) [citronellal]: in assay [1], the “antennal response (EAD) to constituents of citrus leaf headspace” value (“antennal response (EAD) to constituents” for short) was “EAGs were recorded”.

Consider `C=CC(C)(O)CCC=C(C)C` (centres unmarked) [linalool], for which the “antennal response (EAD) to constituents” value in assay [1] is recorded as “EAGs were recorded”.

Turning to `CC(C)=CCC/C(C)=C\CO` [nerol, cis-geraniol (nerol)], the “antennal response (EAD) to constituents” value in assay [1] is given as “EAGs were recorded”. Further, the “antennal response (EAD) to injected synthetic compound” value in assay [1] (setting [2]) is listed as “no responses”. Moreover, the “increase in EAG response from 1 to 10 μg” value in the assay with D. abbreviatus antennae was “did not share such a pattern”.

With `CCC/C=C/CO` [trans-2-hexen-1-ol], the “antennal response (EAD) to injected synthetic compound” value in assay [1] (setting [2]) was “EAGs were recorded”. For the same compound, the antenna sensory threshold result in the assay with D. abbreviatus antennae (females) and in the assay on D. abbreviatus antennae (males) was “around 0.1 μg” in each case.

Take `CC(C)=CCC/C(C)=C/C=O` [trans-citral, trans-citral (geranial)]: in assay [1], the “antennal response (EAD) to constituents” value is “EAGs were recorded”. For the same compound, the “antennal response (EAD) to injected synthetic compound” value in assay [1] (setting [2]) is listed as “no responses”.

As to `CC(C)=CCC/C(C)=C/CO` [trans-geraniol], in assay [1] (setting [2]), the “antennal response (EAD) to injected synthetic compound” value is listed as “no responses”. In the assay on D. abbreviatus antennae, the “increase in EAG response from 1 to 10 μg” value was “did not share such a pattern”. Moreover, in the assay on D. abbreviatus antennae (females), the “increase in magnitude of EAGs with increments in amount dosed in the stimulus cartridge” value is reported as “EAG increase was not pronounced” and the antenna sensory threshold entry is “around 0.1 μg”. In addition, in the assay on D. abbreviatus antennae (males), the “increase in magnitude of EAGs with increments in amount dosed in the stimulus cartridge” value is recorded as “no significant increases”.

(Values after patent US8066979B1, “Attractants and repellents for the tropical root weevil Diaprepes Abbreviatus” (The United States of America as represented by the …, priority 2007, dated 2011).)
